Measurements reported in patent US20100160369A1, “S1P1 Agonists and Methods of Making And Using” (EXELIXIS, INC., priority 2008, published 2010).

How the values were obtained:
hS1P1R (hEdg1) = biological target: T1, hS1P1R (hEdg1) (Homo sapiens, UniProt P21453); test: hS1P1R GTPγS Binding Assay (Assay 3a); format: biochemical
T1 construct: purchased Lonza
Procedure, shortened: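 Human S1P1 receptor membranes (4 μg) incubated 1 h at room temperature with 30 μM GDP, 0.1 nM [35S]GTPγS, 0.25% fatty-acid-free BSA and serially diluted agonist in pH 7.9 Tris buffer with Mg2+ and EGTA. Bound radioactivity read by WGA SPA after a further 1 h; EC50 reported unless noted.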

S1P1 [1] = biological target: T2, S1P1 (Homo sapiens, UniProt P21453); test: CNG cAMP Assay (Assay 1); format: cell-based; parameters: host or cells: HEK293 cells expressing the CNG channel; details: read-out: Assay 1 EC50
Procedure, shortened: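 HEK293 cells expressing CNG channel and S1P1, membrane-potential dye loaded; compounds (top 10 μM, 10-point 3-fold, 1.8% DMSO) added with 25 μM Ro 20-1724, 500 nM NECA and 10 nM S1P for 90 min. T90/T0 fluorescence (Ex 350/Em 590 nm) normalised to NECA-alone vs DMSO; EC50 fitted.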
Target sequence in this assay (P21453 whole entry): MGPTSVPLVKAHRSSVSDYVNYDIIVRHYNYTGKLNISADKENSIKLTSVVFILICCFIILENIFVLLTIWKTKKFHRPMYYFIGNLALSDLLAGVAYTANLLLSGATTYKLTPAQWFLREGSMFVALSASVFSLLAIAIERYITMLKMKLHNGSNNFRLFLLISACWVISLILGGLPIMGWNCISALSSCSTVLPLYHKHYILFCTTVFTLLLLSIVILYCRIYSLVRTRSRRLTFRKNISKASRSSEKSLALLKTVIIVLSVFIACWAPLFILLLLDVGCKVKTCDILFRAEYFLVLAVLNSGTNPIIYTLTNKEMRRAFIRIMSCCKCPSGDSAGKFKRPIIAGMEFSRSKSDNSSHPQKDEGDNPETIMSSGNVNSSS

S1P1 [2] = biological target: T2, S1P1; test: DELFIA GTP-Eu Binding Assay (Assay 3b); format: biochemical; parameters: purchased Lonza; host or cells: CHO cell membranes
Description: The DELFIA GTP-Eu binding assay (PerkinElmer) is a time-resolved fluorometric assay based on GDP-GTP exchange. CHO cell membranes (Lonza) expressing human S1P1 were incubated in 96-well filter plates (Pall, East Hills, N.Y.) in a final volume of 100 μL/well buffer containing 40 μg/mL membrane, 50 mM HEPES, 2 μM GDP, 10 mM MgCl2, 100 mM NaCl, 500 μg/mL Saponin and test compound. Test compounds were tested at maximum concentrations of 10 μM. Compounds were diluted (10 concentration points, 3-fold each) and added to the assay plate at a 1% final DMSO concentration. For each compound, there were duplicate assay plates and each assay plate had duplicate wells per concentration point. The plates were incubated for 30 min at room temperature on a plate shaker at low speed. GTP-Eu was added to each well (10 μL, 10 nM final concentration) and the plate was incubated for an additional 30 min with slow shaking The wells were washed with ice cold GTP washing buffer (3×150 μL) using a vacuum manifold and the assay plates read in an EnVision plate reader (PerkinElmer) at an excitation wavelength of 340 nm and an emission wavelength of 615 nm. To determine agonist activity, percent activity was calculated as [(test compound−background)/(positive control−background)*100], where background is the fluorescence in absence of compound and the positive control is the fluorescence from membranes incubated with 1 μM S1P (Avanti). The percent activities were plotted against compound concentration to determine IC50 or EC50 using XLFit (IDBS).
Assay 1 is the CNG cAMP Assay as described in Biological Example 1. Assay 2a and 2b are the Tango™ β-arrestin Recruitment Assay in HEK293 and U2OS cells, respectively, as described in Biological Example 2. Assay 3a is the hS1P1R GTPγS Binding Assay as described in Biological Example 3. Assay 3b is the GTP-Eu Binding Assay as described in Biological Example 3. EC50's were measured unless otherwise noted. […] In the table, “nt” means the Compound was not tested and “no” means the compound was tested but had no measurable activity under the assay conditions employed.
Target sequence in this assay (P21453 whole entry): as above

S1P1 [3] = biological target: T2, S1P1; test: Tango β-arrestin Recruitment Assay in HEK293 cells (Assay 2a); format: cell-based; parameters: linker with TEV protease (N1a) cleavage site (C); host or cells: HEK293, transiently transfected; details: Tango β-arrestin Recruitment Assay, read-out: Assay 2a EC50
Procedure, shortened: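 HEK293 cells transiently expressing S1P1 (TEV-cleavable tTA fusion) with β-arrestin2–TEV; compounds up to 10 μM, 10-point 3-fold, 1% DMSO, 30 min then 16–18 h at 37 °C. Luciferase luminescence normalised to 5 μM S1P as 100% and DMSO as background; EC50 from percent-activity curves.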
Target sequence in this assay (P21453 whole entry): as above
Target sequence in this assay (P32121 whole entry partner): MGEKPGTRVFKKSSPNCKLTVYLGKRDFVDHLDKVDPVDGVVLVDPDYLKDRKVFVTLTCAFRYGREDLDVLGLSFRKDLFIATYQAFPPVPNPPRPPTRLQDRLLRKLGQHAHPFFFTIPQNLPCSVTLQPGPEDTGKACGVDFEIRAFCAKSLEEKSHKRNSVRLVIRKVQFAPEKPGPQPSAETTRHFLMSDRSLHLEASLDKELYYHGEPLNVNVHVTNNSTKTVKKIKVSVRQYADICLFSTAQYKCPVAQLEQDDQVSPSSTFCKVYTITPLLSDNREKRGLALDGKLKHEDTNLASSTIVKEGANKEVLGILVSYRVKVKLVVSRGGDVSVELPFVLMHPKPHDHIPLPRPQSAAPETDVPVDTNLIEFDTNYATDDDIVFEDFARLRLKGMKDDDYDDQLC

S1P1 [4] = biological target: T2, S1P1; test: Tango β-arrestin Recruitment Assay in U2OS cells (Assay 2b); format: cell-based; parameters: linker with TEV protease (N1a) cleavage site (C); details: Tango β-arrestin Recruitment Assay, read-out: Assay 2b EC50
Procedure, shortened: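 U2OS cells expressing S1P1 and reporter, serum-starved 48 h, treated with compound (10-point 3-fold series, top 1 μM, 1% DMSO) overnight at 37 °C; β-lactamase substrate added 2 h at room temperature. F460/F530 ratio normalised to 1 μM S1P (100%) and DMSO; EC50 from concentration-response.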
Target sequence in this assay (P21453 whole entry): as the sequence (P21453 whole entry) above
Target sequence in this assay (P32121 whole entry partner): as the sequence (P32121 whole entry partner) above

[5] = relative EC50 was measured (footnote 1), read-out: Assay 3b Relative EC50

T1 sequence (P21453 whole entry): as the sequence (P21453 whole entry) above

| EC50 (hS1P1R (hEdg1)) [nM] | EC50 (S1P1 [1]) [nM] | EC50 (S1P1 [2]; read-out: Assay 3b EC50) [nM] | EC50 (S1P1 [3]) [nM] | EC50 (S1P1 [2]; [5]) [nM] | EC50 (S1P1 [4]) [nM] | EC50 (S1P1 [2]; footnote 1: Relative EC50 was measured, read-out: Assay 3b Relative EC50) [nM] | SMILES |
| --- | --- | --- | --- | --- | --- | --- | --- |
| ≤ 100 | ≤ 100 | 100 to 500 | ≤ 100 |  |  |  | Cc1cc(-c2noc(-c3cn4cc(C(F)(F)F)cc(Cl)c4n3)n2)cc(C)c1OCC(O)CO (centres unmarked) [Example 161, 3-[(4-{5-[8-chloro-6-(trifluoromethyl)imidazo[1,2-a]pyridin-2-yl]-1,2,4-oxadiazol-3-yl}-2,6-dimethylphenyl)oxy]propane-1,2-diol] |
| 100 to 500 | ≤ 100 | 100 to 500 | ≤ 100 |  |  |  | O=C(O)CCc1ccc(-c2nnc(-c3cn4cc(C(F)(F)F)cc(Cl)c4n3)s2)c(Cl)c1 [Example 283, 3-(3-chloro-4-{5-[8-chloro-6-(trifluoromethyl)imidazo[1,2-a]pyridin-2-yl]-1,3,4-thiadiazol-2-yl}phenyl)propanoic acid] |
| 1000 to 5000 | ≤ 100 |  | ≤ 100 | 100 to 500 |  |  | O=C(O)CCc1ccc(-c2noc(-c3cn4cc(C(F)(F)F)cc(Cl)c4n3)n2)cc1Cl [Entry 7] |
| 1000 to 5000 | ≤ 100 | 100 to 500 | ≤ 100 |  |  |  | Cc1c(I)ccc2nc(-c3nc(-c4cc(F)c(CCC(=O)O)cc4Cl)no3)cn12 [Example 300, 3-{5-chloro-2-fluoro-4-[5-(6-iodo-5-methylimidazo[1,2-a]pyridin-2-yl)-1,2,4-oxadiazol-3-yl]phenyl}propanoic acid] |
|  | ≤ 100 | 100 to 500 | ≤ 100 |  | 100 to 500 |  | NCCOc1ccc(-c2noc(-c3cn4cc(C(F)(F)F)cc(Cl)c4n3)n2)c(Cl)c1 [Example 257, 2-[(3-chloro-4-{5-[8-chloro-6-(trifluoromethyl)imidazo[1,2-a]pyridin-2-yl]-1,2,4-oxadiazol-3-yl}phenyl)oxy]ethanamine] |
| 500 to 1000 | ≤ 100 | 100 to 500 | ≤ 100 |  |  |  | Cc1cc(C2CC2C(=O)O)c(F)cc1-c1noc(-c2cn3cc(C(F)(F)F)cc(Cl)c3n2)n1 (centres unmarked) [Example 79, 2-(4-{5-[8-chloro-6-(trifluoromethyl)imidazo[1,2-a]pyridin-2-yl]-1,2,4-oxadiazol-3-yl}-2-fluoro-5-methylphenyl)cyclopropanecarboxylic acid] |
|  | ≤ 100 | 100 to 500 | ≤ 100 |  | ≤ 100 |  | CS(=O)(=O)Nc1ccc(-c2nnc(-c3cn4cc(C(F)(F)F)cc(Cl)c4n3)s2)c(Cl)c1 [Example 239, N-(3-chloro-4-{5-[8-chloro-6-(trifluoromethyl)imidazo[1,2-a]pyridin-2-yl]-1,3,4-thiadiazol-2-yl}phenyl)methanesulfonamide] |
| 500 to 1000 | ≤ 100 | 100 to 500 | ≤ 100 |  |  |  | CC(CO)Oc1ccc(-c2noc(-c3cn4cc(C(F)(F)F)cc(Cl)c4n3)n2)c(Cl)c1 (centres unmarked) [Example 256, 2-[(3-chloro-4-{5-[8-chloro-6-(trifluoromethyl)imidazo[1,2-a]pyridin-2-yl]-1,2,4-oxadiazol-3-yl}phenyl)oxy]propan-1-ol] |
|  | ≤ 100 | 1000 to 5000 | 100 to 500 |  |  |  | O=C(O)CCNCc1ccc(-c2noc(-c3cn4cc(C(F)(F)F)cc(Br)c4n3)n2)c(Cl)c1 [Example 131, N-[(4-{5-[8-bromo-6-(trifluoromethyl)imidazo[1,2-a]pyridin-2-yl]-1,2,4-oxadiazol-3-yl}-3-chlorophenyl)methyl]-beta-alanine] |
|  | ≤ 100 |  | 100 to 500 | 1000 to 5000 |  |  | O=C(O)C1CC1c1ccc(-c2noc(-c3cn4cc(C(F)(F)F)cc(Cl)c4n3)n2)c(Cl)c1 (centres unmarked) [Example 42, 2-(3-chloro-4-{5-[8-chloro-6-(trifluoromethyl)imidazo[1,2-a]pyridin-2-yl]-1,2,4-oxadiazol-3-yl}phenyl)cyclopropanecarboxylic acid] |
|  | ≤ 100 | 1000 to 5000 | 100 to 500 |  |  |  | CC(CC(=O)O)c1ccc(-c2noc(-c3cn4cc(C(F)(F)F)cc(Cl)c4n3)n2)c(Cl)c1 (centres unmarked) [Example 172, 3-(3-chloro-4-{5-[8-chloro-6-(trifluoromethyl)imidazo[1,2-a]pyridin-2-yl]-1,2,4-oxadiazol-3-yl}phenyl)butanoic acid] |
|  | ≤ 100 | 500 to 1000 | ≤ 100 |  |  |  | O=C(O)CCc1ccc(-c2noc(-c3cn4cc(C(F)(F)F)cc(Cl)c4n3)n2)c(Cl)c1 [Entry 1] |
|  | ≤ 100 |  | 100 to 500 | 1000 to 5000 |  |  | Cc1cc(C2CC2C(=O)O)ccc1-c1noc(-c2cn3cc(C(F)(F)F)cc(Cl)c3n2)n1 (centres unmarked) [Entry 69] |
| 100 to 500 | ≤ 100 | 500 to 1000 | 100 to 500 |  |  |  | NCCOc1ccc(-c2nnc(-c3cn4cc(C(F)(F)F)cc(Cl)c4n3)s2)c(Cl)c1 [Example 244, 2-[(3-chloro-4-{5-[8-chloro-6-(trifluoromethyl)imidazo[1,2-a]pyridin-2-yl]-1,3,4-thiadiazol-2-yl}phenyl)oxy]ethanamine] |
| ≤ 100 | ≤ 100 | 100 to 500 | ≤ 100 |  |  |  | C[C@@H](CO)Oc1cc(Cl)c(-c2noc(-c3cn4cc(C(F)(F)F)cc(Cl)c4n3)n2)cc1F [Example 96, (2S)-2-[(5-chloro-4-{5-[8-chloro-6-(trifluoromethyl)imidazo[1,2-a]pyridin-2-yl]-1,2,4-oxadiazol-3-yl}-2-fluorophenyl)oxy]propan-1-ol] |
|  | ≤ 100 |  | ≤ 100 |  |  | 100 to 500 | O=C(O)CC(O)c1ccc(-c2noc(-c3cn4cc(C(F)(F)F)cc(Cl)c4n3)n2)c(Cl)c1 (centres unmarked) [Example 139, 3-(3-chloro-4-{5-[8-chloro-6-(trifluoromethyl)imidazo[1,2-a]pyridin-2-yl]-1,2,4-oxadiazol-3-yl}phenyl)-3-hydroxypropanoic acid] |
| ≤ 100 | ≤ 100 | 100 to 500 | ≤ 100 |  |  |  | CC(CO)Oc1cc(Cl)c(-c2noc(-c3cn4cc(C(F)(F)F)cc(Cl)c4n3)n2)cc1F (centres unmarked) [Example 259, 2-[(5-chloro-4-{5-[8-chloro-6-(trifluoromethyl)imidazo[1,2-a]pyridin-2-yl]-1,2,4-oxadiazol-3-yl}-2-fluorophenyl)oxy]propan-1-ol] |
